# Source: PMC9090415, “Discovery of small molecule inhibitors of Plasmodium falciparum apicoplast DNA polymerase” (Journal of Enzyme Inhibition and Medicinal Chemistry, 2022)
# Target: P. falciparum apicoplast DNA polymerase (Pf-apPOL) (Plasmodium falciparum, UniProt Q8ILY1)
# Test: Fluorescence-based high-throughput DNA polymerase assay (molecular beacon), primary screen and dose-response;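 for % inhibition Apol 40': compound concentration given in µM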
# Assay type: biochemical
# Details: for DNA Pol: 90 min, 10 µM
# How it was run: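 Single-point screening used 10 µM compound with 20 nM polymerase, 20 nM hairpin substrate and 6 µM dNTPs for 90 min at 25 °C. Confirmatory titrations (2.5–80 µM) followed fluorescence at three times, and IC50 was derived from a fit including a cooperativity term n.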
# P. falciparum apicoplast DNA polymerase (Pf-apPOL), sequence (Q8ILY1 entry or part of it): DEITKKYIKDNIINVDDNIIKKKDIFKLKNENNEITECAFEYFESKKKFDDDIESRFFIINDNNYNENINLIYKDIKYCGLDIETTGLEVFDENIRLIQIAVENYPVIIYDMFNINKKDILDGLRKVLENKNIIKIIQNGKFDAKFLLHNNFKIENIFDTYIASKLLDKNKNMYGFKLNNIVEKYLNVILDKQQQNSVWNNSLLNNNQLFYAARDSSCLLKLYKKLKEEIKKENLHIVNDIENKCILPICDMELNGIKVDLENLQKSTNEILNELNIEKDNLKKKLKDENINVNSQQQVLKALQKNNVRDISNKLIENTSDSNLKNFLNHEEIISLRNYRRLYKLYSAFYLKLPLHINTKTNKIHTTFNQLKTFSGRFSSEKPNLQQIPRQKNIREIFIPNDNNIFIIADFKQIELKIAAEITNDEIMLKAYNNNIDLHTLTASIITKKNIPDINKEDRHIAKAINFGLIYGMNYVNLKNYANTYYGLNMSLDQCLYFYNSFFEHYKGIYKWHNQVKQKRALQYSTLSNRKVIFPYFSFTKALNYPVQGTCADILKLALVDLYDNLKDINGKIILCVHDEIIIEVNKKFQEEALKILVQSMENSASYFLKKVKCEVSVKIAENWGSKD
smiles,measurement,setting,value
"N#CC(C#N)=C1SCN(c2cccc(Cl)c2)CS1 [Molecule 29, N#CC(=C1SCN(CS1)c1cccc(c1)Cl)C#N]",DNA Pol,'DNA Pol' of the 186 hits list (screen value),95
same,% inhibition Apo pol 10',"DRC-1, conc 2.5",21.8228%
same,% inhibition Apo pol 10',"DRC-1, conc 5",35.73%
same,% inhibition Apo pol 10',"DRC-1, conc 10",36.478%
same,% inhibition Apo pol 10',"DRC-1, conc 20",90.158%
same,% inhibition Apo pol 10',"DRC-1, conc 40",91.3949%
same,% inhibition Apo pol 10',"DRC-1, conc 80",94.8229%
same,% inhibition Apol 90',"DRC-1, conc 2.5",12.5059%
same,% inhibition Apol 90',"DRC-1, conc 5",27.1845%
same,% inhibition Apol 90',"DRC-1, conc 10",28.2977%
same,% inhibition Apol 90',"DRC-1, conc 20",85.5173%
same,% inhibition Apol 90',"DRC-1, conc 40",87.9667%
same,% inhibition Apol 90',"DRC-1, conc 80",95.5447%
same,% inhibition apPOL 180',"DRC-1, conc 2.5",2.521%
same,% inhibition apPOL 180',"DRC-1, conc 5",13.8215%
same,% inhibition apPOL 180',"DRC-1, conc 10",15.4746%
same,% inhibition apPOL 180',"DRC-1, conc 20",81.5285%
same,% inhibition apPOL 180',"DRC-1, conc 40",85.2905%
same,% inhibition apPOL 180',"DRC-1, conc 80",94.962%
same,% inhibition Apo pol 5',"DRC-2, conc 2.5",14%
same,% inhibition Apo pol 5',"DRC-2, conc 5",34%
same,% inhibition Apo pol 5',"DRC-2, conc 10",45%
same,% inhibition Apo pol 5',"DRC-2, conc 20",55%
same,% inhibition Apo pol 5',"DRC-2, conc 40",60%
same,% inhibition Apo pol 5',"DRC-2, conc 80",60%
same,% inhibition Apo pol 5',"DRC-2, concentration 40",60%
same,% inhibition Apo pol 5',"DRC-2, concentration 80",60%
same,% inhibition Apol 40',"DRC-2, conc 2.5",20%
same,% inhibition Apol 40',"DRC-2, conc 5",42%
same,% inhibition Apol 40',"DRC-2, conc 10",56%
same,% inhibition Apol 40',"DRC-2, conc 20",65%
same,% inhibition Apol 40',"DRC-2, conc 40",73%
same,% inhibition Apol 40',"DRC-2, conc 80",76%
same,% inhibition Apol 40',"DRC-2, concentration 10",56%
same,% inhibition Apol 40',"DRC-2, concentration 40",73%
same,% inhibition ApPOL 90',"DRC-2, conc 2.5",17%
same,% inhibition ApPOL 90',"DRC-2, conc 5",41%
same,% inhibition ApPOL 90',"DRC-2, conc 10",56%
same,% inhibition ApPOL 90',"DRC-2, conc 20",66%
same,% inhibition ApPOL 90',"DRC-2, conc 40",75%
same,% inhibition ApPOL 90',"DRC-2, conc 80",79%
same,% inhibition ApPOL 90',"DRC-2, concentration 10",56%
same,% inhibition apPOL 180',"DRC-2, conc 2.5",10%
same,% inhibition apPOL 180',"DRC-2, conc 5",31%
same,% inhibition apPOL 180',"DRC-2, conc 10",48%
same,% inhibition apPOL 180',"DRC-2, conc 20",62%
same,% inhibition apPOL 180',"DRC-2, conc 40",73%
same,% inhibition apPOL 180',"DRC-2, conc 80",81%
same,% inhibition apPOL 180',"DRC-2, concentration 40",73%
same,DNA Pol,"primary screen value, ""DNA Pol""",95
